Values after ≈ are worked out from the molar mass of the structure shown. Values joined by “and” are separate entries in the source; they are usually repeats but may differ in a detail not shown here. Equal values may be shown once. Read-outs that look alike come from different tables or passages of the source. Marks after values point to notes of the source that are not given here.
Columns and labels:
[1] = system: Salmonella typhimurium TA1535/pSK1002; assay: Salmonella typhimurium SOS/umu genotoxicity assay; conditions: for Max. Fold Increase / Potential genotox: −S9
Description: (§1) This assay is based on the ability of DNA damaging agents to induce the expression of the umu operon. The Salmonella strains have a plasmid pSK1002 which carries an umuC-lacZ fused gene that produces a hybrid protein with β-galactosidase activity and whose expression is controlled by the umu regulatory region.

[2] = system: Salmonella typhimurium NM2009; assay: Salmonella typhimurium SOS/umu genotoxicity assay
Description: as §1

[3] = system: L6 Sketal muscle myoblast; assay: Cellular cytotoxicity screen, Resazurin reduction; format: cell-based, rat
Description: (§2) Values represent Tox 50 in μM. Cytotoxicity measured by Resazurin reduction.
(§3) Single full dose response curves generated using 10 independent drug concentrations. The 100 therapeutic index (TI) is the ration of the TOX 50 to the IC50 for the specific compound against the 3D7 P. falciparum isolate. The primary hepatocytes have demonstrable drug metabolising activity. The tetraoxane derivatives are remarkably non-toxic in these screens with in vitro TIs of between 5000 to 17000!.

[4] = system: H9c2(2-1) Myocardium, heart; assay: Cellular cytotoxicity screen, Resazurin reduction; format: cell-based, rat; conditions: H9c(2-1)
Description: as §2, §3

[5] = system: HepG2 Human hepatocyte carcinoma; assay: Cellular cytotoxicity screen, Resazurin reduction; format: cell-based; conditions: Hep2G
Description: as §2, §3

[6] = system: MRC-5 Embryonal lung, diploid; assay: Cellular cytotoxicity screen, Resazurin reduction; format: cell-based, Human
Description: as §2, §3

[7] = system: Vero Kidney; assay: Cellular cytotoxicity screen, Resazurin reduction; format: cell-based, African green monkey, Cercopithecus aethiops
Description: as §2, §3

[8] = Timed iron degradation stability, FeBr2 in THF; format: physicochemical; conditions: ferrous bromide/THF
Description: The resulting residue was purified by flash column chromatography and the % recovery of starting endoperoxide calculated (Table 15).

[9] = physchem
[10] = system: 3D7 strain of Plasmodium falciparum; assay: In vitro antimalarial activity, 48-h [3H]-hypoxanthine incorporation assay; format: cell-based
Protocol: The 3D7 strain of Plasmodium falciparum was used in this study. This strain is known to be […] Parasites were maintained in continuous culture using the method of Jensen and Trager^4. […] Stock drug solutions were prepared in 100% dimethylsulphoxide (DMSO) and diluted to the appropriate concentration using complete medium. Assays were performed in sterile 96-well microlitre plates, each plate contained 200 μl of parasite culture (2% parasitemia, 0.5% haematocrit) with or without 10 μl drug dilutions. Each drug was tested in triplicate and parasite growth compared to control wells (which constituted 100% parasite growth). […] IC50 values were calculated by interpolation of the probit transformation of the log dose-response curve.

[11] = system: Plasmodium yoelli; assay: 4-day Peter's suppressive test; format: in vivo; conditions: 4-day Peter's test, mice
Protocol: Selections of the compounds were screened for in vivo activity. In vivo data (Table 6) was determined using 30 mg/kg oral (po) and subcutaneous (sc) doses in a 4-days Peter's test. For subcutaneous administration, compounds were dissolved in 10% dimethylsulfoxide (DMSO) 0.05% Tween 80 (Sigma, Dorset, UK) in distilled water. For oral administration, compounds were dissolved in standard suspending formula (SSV) [0.5% sodium carboxymethylcellulose, 0.5% benzyl alcohol, 0.4% Tween 80, 0.9% NaCl (all Sigma)]. Subcutaneous (s.c) or oral (p.o) treatment was done with 0.2 ml of a solution of the test compound two hours (day 0) and on days 1, 2, and 3 post infections. Parasitaemia was determined by microscopic examination of Giemsa stained blood films taken on day 4. Microscopic counts of blood films from each mouse were processed using MICROSOFT@EXCELL spreadsheet (Microsoft Corp.) and expressed as percentage of inhibition from the arithmetic mean parasitaemias of each group in relation to the untreated group.

[12] = system: P. berghei ANKA; assay: In vivo dose response screening against P. berghei ANKA; set-up: species or system mice; conditions: Chloroquine Resistant Strains of the P. Berghei ANKA, Table 7
Protocol: Compound 29c, 29h and 291 were then subjected to dose response experiment against the P. berghei ANKA and the results are summarized in Table 7 below.

[13] = system: Plasmodium falciparum PH3; assay: In vitro analysis versus strains of Plasmodium falciparum: PH3; format: cell-based
[14] = system: P. berghei ANKA; assay: In vivo dose response screening against P. berghei ANKA; conditions: P. berghei ANKA infected mice, Table 9
[15] = 3D7, 3D7 strain, mean of triplicate results, Table 5, read-out: Mean IC50
[16] = Plasmodium berghei, in Mus musculus

For `CC(C)(C)NCc1cc(Nc2ccnc3cc(Cl)ccc23)ccc1Cl` [Tetraoxane D535, 4′Chloro N-tertbutyl amodiaquin, reference compound], the “MCE TA1535 (Maximum Co w/o effects on bacteria growth or β-galactosidase production)” value [1] was 140 µM, the “Max. Fold Increase” value [1] was 1.10 ± 0.07 fold and the Potential genotox [1] was “NEG”. For the same molecule, the “MCE NM2009 (Maximum Co w/o effects on bacteria growth or beta-galactosidase production)” value [2] was 140 µM and the Potential genotox [2] was “NEG”.
In the case of `COc1cccc2c1C(=O)c1c(O)c3c(c(O)c1C2=O)C[C@@](O)(C(=O)CO)C[C@@H]3O[C@H]1C[C@H](N)[C@H](O)[C@H](C)O1` [Doxorubicin], the “Tox 50” value [3] is reported as >5 µM, the “Tox 50” value [4] is reported as 3 µM and the “Tox 50” value [5] is reported as 0.3 µM. For the same molecule, the “Tox 50” value [6] was 2 µM and the “Tox 50” value [7] was >5 µM.
In the case of `O=S(=O)(c1ccccc1)N1CCC2(CC1)OOC1(O2)C2CC3CC(C2)CC1C3` (stereo not drawn) [Tetraoxane 42], the degradation ([8]; after 4 h) is reported as ~90% and the turnover ([8]; after 48 h) is reported as 100%.
For `Nc1ccc2cc3ccccc3cc2c1` [Tetraoxane 2Aan, 2-Aminoanthracene, reference compound], the solubility [9] was 5 µg/mL (≈ 25.9 µM), the “MCE TA1535 (Maximum Co w/o effects on bacteria growth or β-galactosidase production)” value ([1]; positive controls) was 5 µg/mL and the “Max. Fold Increase” value [1] was 1.10 ± 0.11 fold. For the same molecule, the Potential genotox [1] was “NEG”, the “MCE NM2009 (Maximum Co w/o effects on bacteria growth or beta-galactosidase production)” value ([2]; in the presence of rat S9) was 0.31* μg/mL and the “Max. Fold Increase” value ([2]; −S9) was 1.08 ± 0.01 fold. For the same molecule, the Potential genotox ([2]; −S9) was “NEG”.
In the case of `O=C(CC1CCC2(CC1)OOC1(CCCCC1)OO2)N1CCOCC1` [Tetraoxane 27h, 1-Morpholin-4-yl-2-(7,8,15,16-tetraoxa-dispiro[5.2.5.2]hexadec-3-yl)-ethanone], the IC50 [10, 15] is reported as 22.2 nM, the melting point is reported as 126 to 128 °C and the “Percentage of inhibition at 30 mg/kg (p.o)” value [11] is reported as 33.0%.
For `CO[C@H]1O[C@@H]2O[C@@]3(C)CC[C@H]4[C@H](C)CC[C@@H]([C@H]1C)[C@@]24OO3` [Artemether, artemether, reference compound], the IC50 [10, 15] was 1.7 nM, the IC50 ([10]; 3D7, sulfonamide dispiro 1,2,4,5-tetraoxanes, Table 8, read-out: Mean IC50) was 3.2 nM and the ED90 [12] was 10.57 mg/kg. For the same molecule, the ED50 [12, 16] was 5.88 mg/kg and the “Percentage of inhibition at 30 mg/kg (p.o)” value [11] was 100%.
With `C[C@H]1[C@H](OC(=O)CCC(=O)O)O[C@@H]2O[C@@]3(C)CC[C@H]4[C@H](C)CC[C@@H]1[C@@]24OO3` [Artesunate, artesunate] the “Percentage of inhibition at 30 mg/kg (p.o)” value [11] was 100%, the IC50 [13] was 0.9 nM and the ED50 [14] was 2.90 mg/kg. The ED90 ([14]; sigmoidal curve calculation) was 17.78 mg/kg and 16.67 mg/kg and the ED50 [14, 16] was 3.2 mg/kg.
For `O=S(=O)(c1ccccc1)N1CCC2(CC1)COC1(OO2)C2CC3CC(C2)CC1C3` (stereo not drawn) [Tetraoxane 43], the degraded ([8]; after 48 h) was 57%.

Reference: US20100113436A1, “DISPIRO TETRAOXANE COMPOUNDS AND THEIR USE IN THE TREATMENT OF MALARIA AND/OR CANCER” (priority 2006, published 2010)
